{
  "source": "patent US7833979B2",
  "about": "“Toxin peptide therapeutic agents” (Amgen Inc., priority 2005, dated 2010)",
  "key": {"Kv1.3": {"biological_target": "Kv1.3 (Homo sapiens, UniProt P22001)", "sequence (P22001 whole entry)": "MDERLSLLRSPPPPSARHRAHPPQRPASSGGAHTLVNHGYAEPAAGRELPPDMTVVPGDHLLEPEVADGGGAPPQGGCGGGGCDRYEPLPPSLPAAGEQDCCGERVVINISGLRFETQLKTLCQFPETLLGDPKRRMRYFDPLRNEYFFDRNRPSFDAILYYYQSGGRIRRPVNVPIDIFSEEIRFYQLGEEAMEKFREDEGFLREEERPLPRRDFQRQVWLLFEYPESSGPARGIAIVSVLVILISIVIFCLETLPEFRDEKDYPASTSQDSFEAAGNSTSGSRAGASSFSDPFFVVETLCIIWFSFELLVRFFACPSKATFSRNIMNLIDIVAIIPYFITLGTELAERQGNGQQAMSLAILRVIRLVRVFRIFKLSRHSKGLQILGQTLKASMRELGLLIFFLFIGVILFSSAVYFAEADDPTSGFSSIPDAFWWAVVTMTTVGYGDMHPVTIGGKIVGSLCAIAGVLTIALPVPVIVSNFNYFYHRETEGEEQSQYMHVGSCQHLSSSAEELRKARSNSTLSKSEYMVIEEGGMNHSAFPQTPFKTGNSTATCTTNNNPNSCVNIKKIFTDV", "test": "Whole cell patch clamp electrophysiology on HEK293 cells stably expressing human Kv1.3", "format": "cell-based", "conditions": "for selectivity ratio hKv1.1/hKv1.3: ratio of hKv1.1 IC50 to hKv1.3 IC50"}, "[1]": {"test_system": "IL-2 and IFNg production from anti-CD3 and anti-CD28 stimulated human PBMCs", "test": "Inhibition of T cell cytokine production following anti-CD3 and anti-CD28 antibody stimulation of PBMCs", "format": "cell-based", "conditions": "48 hours", "protocol": "Inhibition of T cell cytokine production following Anti-CD3 and anti-CD28 antibody stimulation of PBMCs. PBMCs were previously isolated from normal human donor Leukopheresis packs, purified by density gradient centrifugation (Ficoll Hypaque), and cryopreserved using INCELL Freezing Medium. PBMCs were thawed (95% viability), washed, and seeded (in RPMI complete medium containing serum replacement, PSG) at 2×10^5 cells per well into 96-well flat bottom plates. Cells were pre-incubated with serially diluted (100 nM-0.003 nM final) ShK[1-35], Fc-L10-ShK[1-35], or Fc control for 1 hour before the addition of aCD3 and aCD28 (2.5 ng/mL and 100 ng/mL respectively) in a final assay volume of […]. Supernatants were collected after 48 hours, and analyzed using the Meso Scale Discovery (MSD) SECTOR™ Imager 6000 (Meso Scale Discovery, Gaithersbury, Md.) to measure the IL-2 and IFNg protein levels by utilizing electrochemiluminescence (ECL). […] of supernatant was added to the MSD multi-spot 96-well plates (each well containing IL-2, TNFa, and IFNg capture antibodies). The plates were sealed and incubated at room temperature on a plate shaker for 1 hour. Then […] of Ruthenium-labeled detection antibodies (1 ug/ml final of IL-2, TNFα, and IFNγ in Antibody Dilution Buffer) and […] of 2×MSD Read Buffer were added. The plates were sealed, covered with tin foil, and incubated at room temperature on a plate shaker for 1 hour. The plates were then read on the SECTOR™ Imager 6000. […] (POC=Percent Of Control of response in the absence of inhibitor)."}, "[2]": {"test": "Intravenous pharmacokinetic study in rats, serum levels by Kv1.3 inhibition bioassay", "format": "in vivo, Spraque Dawley rats", "conditions": "for Time of significant suppression of Kv1.3 current (<70 POC) by serum: single equal molar IV injection, 5% serum Test solutions", "protocol": "This dose represented equal molar amounts of these two molecules. The average weight of the rats was about 0.3 kg and two rats were used for each dose & molecule. At various times following IV injection, blood was drawn and about 0.1 ml of serum was collected. Serum samples were stored frozen at −80° C. until analysis.\nAssay Plate preparation for electrophysiology. […] Before experiments, each sample was thawed at room temperature and an aliquot (70 to 80 μl) was transferred to a well in a 96-well polypropylene plate. In order to prepare the Assay Plate, several dilutions were made from the pharmacokinetic serum samples to give rise to Test Solutions. Dilutions of serum samples from the pharmacokinetic study were into 10% Phosphate Buffered Saline (PBS, with Ca^2+ and Mg^2+). […] Standard inhibition curves were also prepared in the Assay Plate.\nCell preparation for electrophysiology. CHO cells stably expressing the voltage-activated K^+ channel, Kv1.3 were plated in T-175 tissue culture flasks (at a density of 5×10^6) 2 days before experimentation and allowed to grow to around 95% confluence. Immediately prior to the experiment, the cells were washed with PBS and then detached with a 2 ml mixture (1:1 volume ratio) of trypsin (0.25%) and versene (1:5000) at 37° C. (for 3 minutes). […] The mean K^+ current amplitude was measured between 430 and 440 ms and the data were exported to a Microsoft Excel spreadsheet. The amplitude of the K^+ current in the presence of each concentration of the Test Solution or Standard was expressed as a percentage of the K^+ current in control conditions in the same well.\nStandard inhibition curves were generated for each standard in various levels of rat serum and expressed as current percent of control (POC) versus log of nM concentration. […]\nBeyond 48 hours, the level of drug falls outside the linear range of the Standard curve and is not calculated. […]"}, "[3]": {"test_system": "thapsigargin-induced IL-2 and IFN-g production in human whole blood", "test": "Ex vivo human whole blood assay, thapsigargin-induced secretion of IL-2 and IFN-g", "format": "cell-based", "conditions": "two donors, 48 hours"}, "[4]": {"test_system": "upregulation of CD40L and IL-2R on CD4+ T cells in human whole blood", "test": "Ex vivo human whole blood assay, thapsigargin-induced cell surface CD40L and IL-2R on T cells (FACS)", "format": "cell-based", "conditions": "24 hours"}, "[5]": {"conditions": "cited from earlier work"}, "[6]": {"test_system": "AT-EAE model of multiple sclerosis", "test": "Adoptive transfer experimental autoimmune encephalomyelitis (AT-EAE) model of multiple sclerosis", "format": "in vivo, Lewis rats", "conditions": "for Survival to the end of the study: n=5 rats per group; for peak clinical severity score average: scale 0-6"}, "human Kv1.1": {"biological_target": "T1, human Kv1.1 (Homo sapiens, UniProt Q09470)", "T1 construct": "expressed in transfected cells; host or cells: HEK293", "T1 sequence (Q09470 whole entry)": "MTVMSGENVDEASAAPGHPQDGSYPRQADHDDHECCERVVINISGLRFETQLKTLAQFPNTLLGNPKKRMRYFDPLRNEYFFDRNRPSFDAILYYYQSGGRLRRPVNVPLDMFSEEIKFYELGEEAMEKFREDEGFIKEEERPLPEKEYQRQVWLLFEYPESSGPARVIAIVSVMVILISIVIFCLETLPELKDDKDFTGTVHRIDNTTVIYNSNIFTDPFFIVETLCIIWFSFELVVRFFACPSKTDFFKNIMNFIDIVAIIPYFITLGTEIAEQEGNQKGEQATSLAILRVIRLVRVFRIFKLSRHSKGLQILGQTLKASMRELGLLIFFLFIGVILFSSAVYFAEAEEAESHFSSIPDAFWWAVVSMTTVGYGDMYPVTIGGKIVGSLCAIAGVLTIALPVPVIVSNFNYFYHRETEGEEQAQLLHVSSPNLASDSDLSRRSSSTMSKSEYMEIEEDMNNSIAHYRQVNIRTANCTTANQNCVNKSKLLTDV", "test": "Whole cell patch clamp electrophysiology, HEK293 cell expression system, human Kv1.1", "format": "cell-based"}},
  "data": [
    {"compound": "CC[C@H](C)[C@@H]1NC(=O)[C@@H](NC(=O)[C@H](CO)NC(=O)[C@@H](N)CCCNC(=N)N)CSSC[C@@H](C(=O)O)NC(=O)[C@H]([C@@H](C)O)NC(=O)CNC(=O)[C@@H]2CSSC[C@@H]3NC(=O)[C@H](CCC(N)=O)NC(=O)[C@H](Cc4ccccc4)NC(=O)[C@H](C)NC(=O)[C@H]([C@@H](C)O)NC(=O)[C@H](CSSC[C@H](NC(=O)[C@H](Cc4ccccc4)NC(=O)[C@H](CO)NC(=O)[C@H](CC(C)C)NC(=O)[C@H](CCCNC(=N)N)NC(=O)[C@H](Cc4ccc(O)cc4)NC(=O)[C@H](CCCCN)NC(=O)[C@H](CCSC)NC(=O)[C@H](CO)NC(=O)[C@H](Cc4cnc[nH]4)NC(=O)[C@H](CCCCN)NC3=O)C(=O)N[C@@H](CCCNC(=N)N)C(=O)N[C@@H](CCCCN)C(=O)N[C@@H]([C@@H](C)O)C(=O)N2)NC(=O)[C@H](CCCNC(=N)N)NC(=O)[C@H](CO)NC(=O)[C@H](CCCCN)NC(=O)[C@@H]2CCCN2C(=O)[C@H]([C@@H](C)CC)NC(=O)[C@H]([C@@H](C)O)NC(=O)[C@H](CC(=O)O)NC1=O", "note": "[ShK[1-35], Stichodactyla helianthus neurotoxin, reference compound]", "values": [
      {"measurement": "Blockade of human Kv1.3 current (in words)", "setting": "Kv1.3; patch clamp electrophysiology", "value": "potently block Kv1.3"},
      {"measurement": "Inhibition of IFNg production", "setting": "[1]", "value": "only partial inhibtion"},
      {"measurement": "Inhibition of IL-2 production", "setting": "[1]", "value": "only partial inhibtion"},
      {"measurement": "Time of significant suppression of Kv1.3 current (<70 POC) by serum", "setting": "[2]", "value": "≤ 1", "unit": "h"},
      {"measurement": "Thapsigargin-induced IFN-g production in human whole blood", "setting": "[3]", "value": "suppressed"},
      {"measurement": "Thapsigargin-induced IL-2 production in human whole blood", "setting": "[3]", "value": "suppressed"},
      {"measurement": "Thapsigargin-induced IL-2 production in human whole blood", "setting": "[3]; listed as ShK", "value": "potently blocked IL-2 secretion"},
      {"measurement": "Thapsigargin-induced upregulation of CD40L on T cells in human whole blood", "setting": "[4]", "value": "suppressed"},
      {"measurement": "Thapsigargin-induced upregulation of the IL-2R on T cells in human whole blood", "setting": "[4]", "value": "suppressed"},
      {"measurement": "Thapsigargin-induced upregulation of the IL-2R on T cells in human whole blood", "setting": "[4]; listed as ShK", "value": "suppressing activation of the IL-2R"},
      {"measurement": "half-life in vivo of ShK", "setting": "[5]", "value": "~20", "unit": "min"},
      {"measurement": "half-life of native ShK", "setting": "[5]; in vivo", "value": "approximately 0.33 hour"}
    ]},
    {"compound": "PEG-ShK[1-35]: synthetic ShK N-terminally PEGylated with 20 kDa monomethoxy-PEG-aldehyde by reductive alkylation; about 24-kDa", "values": [
      {"measurement": "IC50", "setting": "Kv1.3; blockade of peak outward potassium current, HEK293 cells stably expressing human Kv1.3, read-out: peak IC50", "value": 0.169, "unit": "nM"},
      {"measurement": "terminal half-life (t1/2 b)", "setting": "[2]; IV injection 1 mg/kg, estimated from curve", "value": "6 to 12", "unit": "h"},
      {"measurement": "Time of significant suppression of Kv1.3 current (<70 POC) by serum", "setting": "[2]", "value": "more than 24 hours"},
      {"measurement": "Average body weight lost", "setting": "[6]; 1 ug/kg", "value": 30, "unit": "g"},
      {"measurement": "Onset of disease", "setting": "[6]; 1 μg/kg SC daily days −1 to 3", "value": 4, "unit": "days"},
      {"measurement": "Average body weight lost", "setting": "[6]; 10 μg/kg", "value": 18, "unit": "g"},
      {"measurement": "Onset of disease", "setting": "[6]; 10 μg/kg SC daily days −1 to 3", "value": 4.5, "unit": "days"},
      {"measurement": "Survival to the end of the study", "setting": "[6]; 10 μg/kg", "value": "all but one rat survived to the end of the study"},
      {"measurement": "peak clinical severity score average", "setting": "[6]; 10 μg/kg", "value": "< 2"},
      {"measurement": "Average body weight lost", "setting": "[6]; 100 μg/kg", "value": 11, "unit": "g"},
      {"measurement": "Onset of disease", "setting": "[6]; 100 μg/kg SC daily days −1 to 3", "value": 4.5, "unit": "days"},
      {"measurement": "Survival to the end of the study", "setting": "[6]; 100 μg/kg", "value": "all but one rat survived to the end of the study"},
      {"measurement": "peak clinical severity score average", "setting": "[6]; 100 μg/kg", "value": "< 2"},
      {"measurement": "Disease severity and survival (in words)", "setting": "[6]; SC 10 μg/kg daily from day −1 to day 3", "value": "significantly reduced disease severity and increased survival"}
    ]},
    {"compound": "Fc-L10-OSK1[K7S,E16K,K20D]: OSK1-peptibody with K7S, E16K and K20D substitutions; SEQ ID NO: 1047", "values": [
      {"measurement": "selectivity ratio hKv1.1/hKv1.3", "setting": "Kv1.3", "value": 12},
      {"measurement": "Potency and selectivity Kv1.3 versus Kv1.1 (in words)", "setting": "human Kv1.1", "value": "significant decrease in potency as well as selectivity"}
    ]},
    {"compound": "Fc-L10-OSK1[K7S]: OSK1-peptibody with lysine to serine substitution at position 7; SEQ ID NO: 1043", "values": [
      {"measurement": "selectivity ratio hKv1.1/hKv1.3", "setting": "Kv1.3", "value": 269},
      {"measurement": "IC50", "setting": "human Kv1.1; whole cell patch clamp, HEK293 cell expression system, human Kv1.1, read-out: hKv1.1:IC50", "value": 100, "unit": "nM"}
    ]}
  ]
}
